Test results: US20080200477A1, “Retinoid-Containing Compositions Having Reduced Irritation Effect” (priority 2004, published 2008)

How the values were obtained:
interleukin-8 (IL8) = assay: Retinol-induced interleukin-8 release from reconstituted epidermis (ELISA on culture medium); format: cell-based, human; details: for % reduction of IL8 release Control + retinol: measured after 48 hours and 96 hours (time not given)
Protocol: Samples of reconstituted epidermis were topically applied with gel/emulsions containing retinol (0.075 wt. %) and a series of test ingredients. The release of interleukin-8 (IL8) was measured in the culture medium after 48 hours by an ELISA method. No significant loss of viability was evidenced. No release of interleukin-1 (IL1) was observed.
Samples of reconstituted epidermis were topically applied with gel/emulsions containing retinol (0.075 wt. %) and one of the following test ingredients: Dragocalm® (at 1.5 wt. % and 3.5 wt. %), dipotassium glycyrrhenzinate (at 0.5 wt. %), Rona Care® ectoine (at 0.1 wt. %, 0.25 wt. %), and a willow herb (0.1 wt. %)/oat straw (0.1 wt. %) extract combination. The release of IL8 was measured in each culture medium after 48 hours and 96 hours by an ELISA method. No significant loss of viability was evidenced. No release of IL1 was observed.

[1] = system: retinol induced skin redness; assay: Repeated patch test on backs of human volunteers, cumulated redness score; format: in vivo; details: for inhibition of retinol-induced redness (in words): concentration not given, retinol 0.1 wt. %, human volunteers; for Score (cumulated redness score): 48 hours patches, three times a week during three weeks
Protocol: Based on the foregoing results, Dragocalm®, ectoine, and dipotassium glycyrrhenzinate were tested further on human volunteers for their potential to reduce retinol induced skin redness. Patches containing formulas comprising either retinol (0.1 wt. %) or retinol (0.1 wt. %) plus the test ingredient Dragocalm®, ectoine, or dipotassium glycyrrhenzinate were applied during 48 hours to the backs of volunteers three times a week during three weeks. Redness induced by the patches was examined and scored after each patch removal. Every individual score for each product were cumulated to give the final scores.

[2] = retinol 0.1 wt. % + test ingredient 0.5 wt. %
[3] = retinol 0.1 wt. % + test ingredient 0.25 wt. %

Dipotassium Glycirrhezinate [reference compound]
% Reduction of Interleukin-8 compared with Control + Retinol (interleukin-8 (IL8); Example 1, test ingredient 0.2 wt. % in gel/emulsion with retinol 0.075 wt. %, 48 hours): −29%
reduction (inhibition) of IL8 release (interleukin-8 (IL8); Example 2, 0.5 wt. %, retinol 0.075 wt. %): 63%
% reduction of IL8 release Control + retinol (interleukin-8 (IL8); Example 2, test ingredient 0.5 wt. %, retinol 0.075 wt. %): −63%
inhibition of retinol-induced redness (in words) [1]: not effective
% reduction (of redness score vs Control + Retinol 0.1 wt. %) [1, 2]: −21%
Score (cumulated redness score) [1, 2]: 17

CC(C)=CCC[C@](C)(O)[C@@H]1CC=C(C)CC1 [Alpha Bisabolol, reference compound]
% Reduction of Interleukin-8 compared with Control + Retinol (interleukin-8 (IL8); Example 1, test ingredient 0.05 wt. % in gel/emulsion with retinol 0.075 wt. %, 48 hours): −4%

CCCCCCCCCCCCCCCCCCOC(=O)[C@@]1(C)CC[C@]2(C)CC[C@]3(C)C(=CC(=O)[C@@H]4[C@@]5(C)CC[C@H](O)C(C)(C)[C@@H]5CC[C@]43C)[C@@H]2C1 [Stearyl Glycirrhezinate, reference compound]
% Reduction of Interleukin-8 compared with Control + Retinol (interleukin-8 (IL8); Example 1, test ingredient 0.1 wt. % in gel/emulsion with retinol 0.075 wt. %, 48 hours): 26%

CC1=NC(C(=O)O)CCN1 (centres unmarked) [Rona Care ® Ectoin, 1,4,5,6-tetrahydro-2-methyl-4-pyrimidine carboxylic acid]
decrease of retinol induced IL8 release (interleukin-8 (IL8); Example 1, 1 wt. %, retinol 0.075 wt. %, 48 hours): 55%
% Reduction of Interleukin-8 compared with Control + Retinol (interleukin-8 (IL8); Example 1, test ingredient 1 wt. % in gel/emulsion with retinol 0.075 wt. %, 48 hours): −55%
activity on IL8 release (in words) (interleukin-8 (IL8); Example 2, 0.1 wt. %, retinol 0.075 wt. %): no activity
reduction (inhibition) of IL8 release (interleukin-8 (IL8); Example 2, 0.25 wt. %, retinol 0.075 wt. %): 60%
% reduction of IL8 release Control + retinol (interleukin-8 (IL8); Example 2, test ingredient 0.1 wt. %, retinol 0.075 wt. %): −31%
% reduction of IL8 release Control + retinol (interleukin-8 (IL8); Example 2, test ingredient 0.25 wt. %, retinol 0.075 wt. %): −60%
inhibition of retinol-induced redness (in words) [1]: reduced redness but to a lesser extent
% reduction (of redness score vs Control + Retinol 0.1 wt. %) [1, 3]: −56%
Score (cumulated redness score) [1, 3]: 9.5
